Measurements reported in PMC11181478, “SARS-CoV-2 Main Protease Inhibitors That Leverage Unique Interactions with the Solvent Exposed S3 Site of the Enzyme” (ACS Medicinal Chemistry Letters, 2024).

Tested on: SARS-CoV-2 delta variant (hCoV-19/USA/MD-HP05647/2021)
Assay: Live virus antiviral test in A549-hACE2 cells (RT-qPCR)
Assay type: cell-based
Details: Severe acute respiratory syndrome coronavirus 2, 72 h

CC1(C)[C@@H]2[C@@H](C(=O)N[C@H](C=O)C[C@@H]3CCNC3=O)N(C(=O)[C@H](CC3CCCCC3)NC(=O)OCc3ccccc3)C[C@@H]21 [MPI100] showed an EC50 of 3.4 µM.
